Data reported in ChEMBL document CHEMBL5291721, “A preclinical secondary pharmacology resource illuminates target-adverse drug reaction associations of marketed drugs” (Nat Commun, 2023).

Columns and labels:
Androgen receptor [1] = molecular target: T1, Androgen receptor (Rattus norvegicus, UniProt P15207); type: functional
T1 sequence (P15207 whole entry): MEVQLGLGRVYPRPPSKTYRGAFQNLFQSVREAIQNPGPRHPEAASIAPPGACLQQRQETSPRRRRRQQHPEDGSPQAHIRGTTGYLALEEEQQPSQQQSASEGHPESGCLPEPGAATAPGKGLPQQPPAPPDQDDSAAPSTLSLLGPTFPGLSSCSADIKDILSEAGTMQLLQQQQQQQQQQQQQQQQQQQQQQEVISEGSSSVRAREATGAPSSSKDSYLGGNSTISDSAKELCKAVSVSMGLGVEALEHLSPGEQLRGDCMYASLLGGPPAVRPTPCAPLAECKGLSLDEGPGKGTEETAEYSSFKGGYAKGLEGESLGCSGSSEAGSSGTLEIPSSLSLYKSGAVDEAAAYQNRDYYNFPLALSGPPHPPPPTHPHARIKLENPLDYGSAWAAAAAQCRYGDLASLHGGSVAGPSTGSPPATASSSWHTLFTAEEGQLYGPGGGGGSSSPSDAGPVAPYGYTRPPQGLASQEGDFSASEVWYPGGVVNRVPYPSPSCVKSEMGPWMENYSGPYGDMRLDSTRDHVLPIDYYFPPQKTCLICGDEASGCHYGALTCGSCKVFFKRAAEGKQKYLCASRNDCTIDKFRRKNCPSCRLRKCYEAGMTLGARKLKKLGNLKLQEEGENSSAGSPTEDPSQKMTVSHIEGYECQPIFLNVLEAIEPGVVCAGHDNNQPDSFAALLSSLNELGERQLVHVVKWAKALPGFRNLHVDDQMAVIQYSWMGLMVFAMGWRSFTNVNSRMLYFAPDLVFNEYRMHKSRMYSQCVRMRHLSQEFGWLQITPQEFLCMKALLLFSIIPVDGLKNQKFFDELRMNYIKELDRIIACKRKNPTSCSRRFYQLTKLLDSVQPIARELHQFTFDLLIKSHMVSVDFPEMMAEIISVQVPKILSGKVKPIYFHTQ

[2] = molecular target: Beta-3 adrenergic receptor (Homo sapiens, UniProt P13945)
[3] = molecular target: T2, Alpha-2A adrenergic receptor (Homo sapiens, UniProt P08913)
T2 sequence (P08913 whole entry): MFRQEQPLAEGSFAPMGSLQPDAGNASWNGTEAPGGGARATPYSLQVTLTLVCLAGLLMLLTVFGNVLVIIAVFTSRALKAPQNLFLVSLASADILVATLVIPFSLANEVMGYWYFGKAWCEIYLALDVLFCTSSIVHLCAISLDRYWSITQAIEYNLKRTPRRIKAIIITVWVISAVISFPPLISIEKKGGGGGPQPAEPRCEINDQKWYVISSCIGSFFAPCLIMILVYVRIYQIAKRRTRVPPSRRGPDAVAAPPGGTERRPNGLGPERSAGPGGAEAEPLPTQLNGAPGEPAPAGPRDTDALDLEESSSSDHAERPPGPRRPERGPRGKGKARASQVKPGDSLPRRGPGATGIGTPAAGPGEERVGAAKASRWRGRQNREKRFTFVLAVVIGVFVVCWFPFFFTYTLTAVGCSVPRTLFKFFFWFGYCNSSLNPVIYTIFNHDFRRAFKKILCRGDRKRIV

[4] = molecular target: T3, Endothelin receptor type B (Homo sapiens, UniProt P24530)
T3 sequence (P24530 whole entry): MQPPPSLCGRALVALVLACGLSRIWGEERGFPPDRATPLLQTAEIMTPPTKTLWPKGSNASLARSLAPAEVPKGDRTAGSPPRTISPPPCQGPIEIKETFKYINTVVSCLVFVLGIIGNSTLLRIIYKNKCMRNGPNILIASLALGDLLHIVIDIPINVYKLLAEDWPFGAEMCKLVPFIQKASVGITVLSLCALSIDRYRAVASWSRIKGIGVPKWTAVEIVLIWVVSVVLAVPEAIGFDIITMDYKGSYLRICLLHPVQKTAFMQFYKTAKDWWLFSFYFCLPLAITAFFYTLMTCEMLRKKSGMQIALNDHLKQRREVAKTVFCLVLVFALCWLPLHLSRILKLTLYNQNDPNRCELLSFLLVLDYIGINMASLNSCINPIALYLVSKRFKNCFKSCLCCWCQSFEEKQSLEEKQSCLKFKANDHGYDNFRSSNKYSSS

[5] = molecular target: 5-hydroxytryptamine receptor 2B (Homo sapiens, UniProt P41595)
[6] = molecular target: T4, Alpha-1A adrenergic receptor (Homo sapiens, UniProt P35348)
T4 sequence (P35348 whole entry): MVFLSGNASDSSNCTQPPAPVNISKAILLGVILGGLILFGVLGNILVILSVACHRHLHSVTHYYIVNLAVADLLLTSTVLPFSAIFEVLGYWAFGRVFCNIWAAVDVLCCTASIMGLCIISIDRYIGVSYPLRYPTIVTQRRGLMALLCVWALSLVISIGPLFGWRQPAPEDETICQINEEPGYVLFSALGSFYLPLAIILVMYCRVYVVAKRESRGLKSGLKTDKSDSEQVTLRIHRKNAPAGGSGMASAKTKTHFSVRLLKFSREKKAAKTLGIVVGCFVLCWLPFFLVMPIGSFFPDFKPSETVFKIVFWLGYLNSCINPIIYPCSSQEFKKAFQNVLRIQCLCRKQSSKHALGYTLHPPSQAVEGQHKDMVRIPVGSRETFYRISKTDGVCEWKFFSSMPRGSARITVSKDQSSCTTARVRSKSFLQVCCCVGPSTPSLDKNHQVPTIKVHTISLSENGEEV

Androgen receptor [7] = molecular target: T1, Androgen receptor
Histamine H2 receptor = Histamine H2 receptor (Homo sapiens, UniProt P25021)
[8] = molecular target: T5, Muscarinic acetylcholine receptor M2 (Homo sapiens, UniProt P08172)
T5 sequence (P08172 whole entry): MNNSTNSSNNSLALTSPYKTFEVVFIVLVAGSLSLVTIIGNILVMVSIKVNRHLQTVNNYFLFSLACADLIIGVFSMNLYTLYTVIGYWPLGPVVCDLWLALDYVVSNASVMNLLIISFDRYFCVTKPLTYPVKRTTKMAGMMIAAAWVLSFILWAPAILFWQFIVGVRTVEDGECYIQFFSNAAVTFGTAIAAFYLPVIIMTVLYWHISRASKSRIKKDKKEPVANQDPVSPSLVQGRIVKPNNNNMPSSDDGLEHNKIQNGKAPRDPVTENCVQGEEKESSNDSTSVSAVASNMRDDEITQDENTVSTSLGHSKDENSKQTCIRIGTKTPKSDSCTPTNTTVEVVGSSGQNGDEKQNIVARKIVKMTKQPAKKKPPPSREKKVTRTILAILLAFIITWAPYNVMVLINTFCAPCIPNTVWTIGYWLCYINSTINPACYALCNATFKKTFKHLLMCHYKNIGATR
Further: assay procedure not described here.

Histamine H2 receptor, sequence (P25021 whole entry): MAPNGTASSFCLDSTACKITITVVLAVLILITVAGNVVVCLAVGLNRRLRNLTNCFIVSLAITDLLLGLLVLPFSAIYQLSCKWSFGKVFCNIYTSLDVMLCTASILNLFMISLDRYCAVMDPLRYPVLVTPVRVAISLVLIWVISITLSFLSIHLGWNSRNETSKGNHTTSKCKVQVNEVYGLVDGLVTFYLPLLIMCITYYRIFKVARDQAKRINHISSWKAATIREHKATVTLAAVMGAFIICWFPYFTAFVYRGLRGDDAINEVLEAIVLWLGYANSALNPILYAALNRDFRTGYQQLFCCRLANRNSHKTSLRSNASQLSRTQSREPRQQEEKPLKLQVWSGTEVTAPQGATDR
5-hydroxytryptamine receptor 2B, sequence (P41595 whole entry): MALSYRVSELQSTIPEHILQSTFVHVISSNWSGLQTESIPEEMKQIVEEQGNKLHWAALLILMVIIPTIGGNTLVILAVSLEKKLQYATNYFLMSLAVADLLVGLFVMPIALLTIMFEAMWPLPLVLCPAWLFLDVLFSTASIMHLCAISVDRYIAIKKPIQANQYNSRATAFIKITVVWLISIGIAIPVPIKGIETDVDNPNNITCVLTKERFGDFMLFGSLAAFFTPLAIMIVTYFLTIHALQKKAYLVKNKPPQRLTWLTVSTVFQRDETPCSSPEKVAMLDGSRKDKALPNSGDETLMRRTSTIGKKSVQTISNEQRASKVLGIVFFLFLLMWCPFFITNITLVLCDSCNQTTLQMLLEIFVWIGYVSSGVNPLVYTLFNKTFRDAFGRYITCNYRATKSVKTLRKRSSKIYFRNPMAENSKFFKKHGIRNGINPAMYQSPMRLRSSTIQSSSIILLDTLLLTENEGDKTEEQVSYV
Beta-3 adrenergic receptor, sequence (P13945 whole entry): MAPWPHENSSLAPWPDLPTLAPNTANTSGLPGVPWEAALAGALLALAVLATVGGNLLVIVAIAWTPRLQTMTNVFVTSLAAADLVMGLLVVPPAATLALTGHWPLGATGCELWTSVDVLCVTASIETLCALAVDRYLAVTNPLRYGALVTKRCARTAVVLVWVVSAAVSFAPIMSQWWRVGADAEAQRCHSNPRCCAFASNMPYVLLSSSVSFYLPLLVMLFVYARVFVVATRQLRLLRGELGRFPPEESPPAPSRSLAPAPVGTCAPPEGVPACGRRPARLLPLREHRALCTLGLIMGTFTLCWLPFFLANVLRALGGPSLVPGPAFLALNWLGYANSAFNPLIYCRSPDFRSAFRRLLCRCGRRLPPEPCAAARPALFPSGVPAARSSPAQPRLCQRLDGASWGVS

| Compound | AC50 [2] | AC50 [3] | AC50 [4] | AC50 [5] | other results |
| --- | --- | --- | --- | --- | --- |
| CCN(CC)CCn1c(=O)c(Cc2ccc(OC)cc2)nc2ccccc21 [CAROVERINE] | – | – | – | – | AC50 (Androgen receptor [1]): > 30 µM |
| CN(C)CCC=C1c2ccccc2CCc2ccccc21 [AMITRIPTYLINE] | > 30 µM | 2.92 µM | > 30 µM | – | – |
| CN(C)CCc1c[nH]c2ccc(CS(=O)(=O)N3CCCC3)cc12 [ALMOTRIPTAN] | – | – | – | 0.51 µM | – |
| CC#CC(=O)N1CCC[C@H]1c1nc(-c2ccc(C(=O)Nc3ccccn3)cc2)c2c(N)nccn12 [ACALABRUTINIB] | – | – | – | – | AC50 [6]: > 30 µM |
| C=CC1=C(C(=O)O)N2C(=O)[C@@H](NC(=O)/C(=N\O)c3csc(N)n3)[C@H]2SC1 | – | – | – | – | AC50 (Androgen receptor [7]): > 30 µM |
| CC(C)(CO)c1cc2cc(NC(=O)C3(c4ccc5c(c4)OC(F)(F)O5)CC3)c(F)cc2n1C[C@@H](O)CO [TEZACAFTOR] | – | – | – | – | AC50 (Androgen receptor [1]): > 30 µM |
| O=C1[C@@H]2[C@H]3CC[C@H](C3)[C@@H]2C(=O)N1C[C@@H]1CCCC[C@H]1CN1CCN(c2nsc3ccccc23)CC1 [LURASIDONE] | – | – | – | – | AC50 (Androgen receptor [1]): 5.7 µM |
| C[C@]12CCC(=O)C=C1CC[C@H]1[C@@H]3CC[C@](O)(C(=O)CO)[C@@]3(C)C[C@H](O)[C@@]12F [FLUDROCORTISONE] | > 30 µM | > 10 µM | > 30 µM | > 10 µM | AC50 (Histamine H2 receptor): > 10 µM; AC50 [8]: > 10 µM |
| CC(=O)Oc1ccccc1C(=O)O [ASPIRIN] | > 30 µM | > 10 µM | > 30 µM | > 10 µM | AC50 (Androgen receptor [7]): > 30 µM; AC50 (Histamine H2 receptor): > 10 µM |
| C[C@H](CS)C(=O)N1CCC[C@H]1C(=O)O [CAPTOPRIL] | – | > 10 µM | – | – | AC50 (Androgen receptor [7]): > 30 µM |
| O=C(O)[C@@H](S)[C@@H](S)C(=O)O | – | – | – | – | AC50 [6]: > 30 µM |
| C[C@H](Nc1ncnc2[nH]cnc12)c1cc2cccc(Cl)c2c(=O)n1-c1ccccc1 [DUVELISIB] | – | – | – | – | AC50 [6]: > 30 µM; AC50 (Androgen receptor [1]): > 30 µM |
| C[C@H](Cn1cnc2c(N)ncnc21)OCP(=O)(O)O [TENOFOVIR ANHYDROUS] | – | – | – | – | AC50 (Androgen receptor [7]): > 30 µM |
| Cc1c(C)c2c(c(C)c1O)CCC(C)(COc1ccc(CC3SC(=O)NC3=O)cc1)O2 (centres undefined) [TROGLITAZONE] | > 30 µM | – | > 30 µM | – | AC50 (Androgen receptor [7]): 3.57 µM; AC50 (Androgen receptor [1]): > 30 µM |
| CCOC(=O)[C@H](CCc1ccccc1)N[C@@H](C)C(=O)N1Cc2ccccc2C[C@H]1C(=O)O | > 30 µM | > 10 µM | > 30 µM | > 10 µM | AC50 (Histamine H2 receptor): > 10 µM; AC50 [8]: > 10 µM |
| O=C(O)COC(=O)Cc1ccccc1Nc1c(Cl)cccc1Cl [ACECLOFENAC] | – | – | – | – | AC50 (Androgen receptor [7]): > 30 µM |
| Cn1cnc2c(F)c(Nc3ccc(Br)cc3F)c(C(=O)NOCCO)cc21 [BINIMETINIB] | – | – | – | – | AC50 (Androgen receptor [1]): > 30 µM |
| CCCCCCO[C@@H](C)c1cccc(-c2csc(NC(=O)c3cc(Cl)c(/C=C(\C)C(=O)O)c(Cl)c3)n2)c1OC [LUSUTROMBOPAG] | – | – | – | – | AC50 [6]: > 30 µM |
| O=C(Cc1cccs1)N[C@@H]1C(=O)N2C(C(=O)[O-])=C(C[n+]3ccccc3)CS[C@H]12 [CEPHALORIDINE] | – | – | – | – | AC50 [6]: > 30 µM |
| Nc1nnc(-c2cccc(Cl)c2Cl)c(N)n1 [LAMOTRIGINE] | > 30 µM | > 10 µM | > 30 µM | > 10 µM | AC50 (Histamine H2 receptor): > 10 µM; AC50 [8]: > 10 µM |
| C#CCN(C)Cc1ccccc1 [PARGYLINE] | – | – | – | – | AC50 [6]: > 30 µM |
| CN(C)CCCC1(c2ccc(F)cc2)OCc2cc(C#N)ccc21 (centres undefined) [CITALOPRAM] | > 30 µM | > 10 µM | > 30 µM | 0.273 µM | – |
| NCC1(CC(=O)O)CCCCC1 [GABAPENTIN] | > 30 µM | > 10 µM | > 30 µM | > 10 µM | AC50 (Histamine H2 receptor): > 10 µM; AC50 [8]: > 10 µM |
| CC(=O)SCC(Cc1ccccc1)C(=O)NCC(=O)OCc1ccccc1 (centres undefined) [RACECADOTRIL] | > 30 µM | > 10 µM | – | > 10 µM | AC50 (Histamine H2 receptor): > 10 µM; AC50 [8]: > 10 µM |
| OCCOCCN1CCN(C(c2ccccc2)c2ccc(Cl)cc2)CC1 (centres undefined) [HYDROXYZINE] | > 30 µM | 12.8 µM | > 30 µM | 0.157 µM | AC50 (Histamine H2 receptor): 0.188 µM; AC50 [8]: 9.04 µM |
